system: not given; settings: background statement; cited from earlier work

Q: For `CC(N)C(O)c1cccc(O)c1` (stereo not drawn) [metaraminol, alpha-(1-aminoethyl)-3-hydroxybenzenemethanol], which toxicity is on record?
A: no practical toxicity problem

Q: Which toxicity does the source give for `Oc1cccc2cccnc12` [oxine] here?
A: relatively high toxicity

system: platelets; settings: 100 µM
Experimental: Change of the take up rate of ^125 I-labled metaraminol into platelets in coexistence with of a medical compound:
The take up rate of ^125 I-labeled metaraminol into platelets in the coexistence with a medical compound was examined. Calculation was make taking the take up rate in case of ^125 I-labeled metaraminol alone as 100%. ^125 I-labeled metaraminol was added to platelets in a molar concentration of 1×10^-7.

Q: Which activity does the source give for `NCCc1c[nH]c2ccc(O)cc12` [Serotonin] here?
A: 17.1 ± 10.3%

Q: For `CNCC(O)c1ccc(O)c(O)c1` (stereo not shown) [Adrenaline], which activity is on record?
A: 61.6 ± 8.3%

Q: With `Cc1ccc(N(CC2=NCCN2)c2cccc(O)c2)cc1` [Phentolamine] as the compound, how does the activity read?
A: 43.1 ± 3.4%

Q: For `CC(C)NCC(O)COc1cccc2ccccc12` (stereo not shown) [Propranolol], which activity is on record?
A: 18 ± 3.1%

Q: For `CN(C)CCCN1c2ccccc2CCc2ccccc21` [Imipramine], which activity is on record?
A: 45.8 ± 6.3%
